Inconclusive results and toxic doses are left out.
System: CD2F1 mice, L1210 leukemia ip, survival T/C
Assay: NCI In Vivo Anticancer Drug Screen. Data for tumor model L1210 Leukemia (intraperitoneal) in CD2F1 (CDF1) mice
Settings: higher = longer survival
In short: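 Each value reflects a quotient of treated over vehicle control outcomes in mice with a transplanted tumor.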

COc1cc([C@@H]2c3cc4c(cc3[C@@H](OC3OC5COC(C)OC5C(O)C3O)[C@H]3COC(=O)[C@H]23)OCO4)cc(OC)c1O (stereo partly drawn)
T/C (endpoint: mean survival time, dose: 0.5 mg/kg/injection, schedule: Q03HX024 (ip), vehicle: saline): 165 % of control
T/C (endpoint: mean survival time, dose: 1.0 mg/kg/injection, schedule: Q03HX024 (ip), vehicle: saline): 360 % of control
T/C (endpoint: mean survival time, dose: 2.0 mg/kg/injection, schedule: Q01DX009 (ip), vehicle: saline): 151 % of control
T/C (endpoint: mean survival time, dose: 2.0 mg/kg/injection, schedule: Q03HX024 (ip), vehicle: saline): 124 % of control
T/C (endpoint: mean survival time, dose: 4.0 mg/kg/injection, schedule: Q01DX009 (ip), vehicle: saline): 246 % of control
T/C (endpoint: mean survival time, dose: 8.0 mg/kg/injection, schedule: Q01DX009 (ip), vehicle: saline): 111 % of control
T/C (endpoint: mean survival time, dose: 8.0 mg/kg/injection, schedule: Q04DX003 (ip), vehicle: saline): 181 % of control
T/C (endpoint: mean survival time, dose: 16.0 mg/kg/injection, schedule: Q01DX009 (ip), vehicle: saline): 87 % of control
T/C (endpoint: mean survival time, dose: 16.0 mg/kg/injection, schedule: Q04DX003 (ip), vehicle: saline): 289 % of control
T/C (endpoint: mean survival time, dose: 32.0 mg/kg/injection, schedule: Q04DX003 (ip), vehicle: saline): 542 % of control
T/C (endpoint: median survival time, dose: 1.0 mg/kg/injection, schedule: Q03HX008 (ip), vehicle: other): 162 % of control
T/C (endpoint: median survival time, dose: 1.0 mg/kg/injection, schedule: Q03HX016 (ip), vehicle: other): 175 % of control
T/C (endpoint: median survival time, dose: 1.0 mg/kg/injection, schedule: Q03HX024 (ip), vehicle: other): 218 % of control
T/C (endpoint: median survival time, dose: 2.0 mg/kg/injection, schedule: Q01DX009 (ip), vehicle: other): 175 % of control
T/C (endpoint: median survival time, dose: 2.0 mg/kg/injection, schedule: Q01DX009 (ip), vehicle: saline): 152 % of control
T/C (endpoint: median survival time, dose: 2.0 mg/kg/injection, schedule: Q01DX009 (sc), vehicle: other): 150 % of control
T/C (endpoint: median survival time, dose: 2.0 mg/kg/injection, schedule: Q03HX008 (ip), vehicle: other): 175 % of control
T/C (endpoint: median survival time, dose: 2.0 mg/kg/injection, schedule: Q03HX016 (ip), vehicle: other): 212 % of control
T/C (endpoint: median survival time, dose: 2.0 mg/kg/injection, schedule: Q03HX024 (ip), vehicle: other): 206 % of control
T/C (endpoint: median survival time, dose: 4.0 mg/kg/injection, schedule: Q01DX009 (ip), vehicle: other): 218 % of control
T/C (endpoint: median survival time, dose: 4.0 mg/kg/injection, schedule: Q01DX009 (ip), vehicle: saline): 195 % of control
T/C (endpoint: median survival time, dose: 4.0 mg/kg/injection, schedule: Q01DX009 (oral), vehicle: Klucel (hydroxypropylcellulose) (HPC)): 105 % of control
T/C (endpoint: median survival time, dose: 4.0 mg/kg/injection, schedule: Q01DX009 (sc), vehicle: other): 168 % of control
T/C (endpoint: median survival time, dose: 4.0 mg/kg/injection, schedule: Q03HX008 (ip), vehicle: other): 181 % of control
T/C (endpoint: median survival time, dose: 4.0 mg/kg/injection, schedule: Q03HX008 (oral), vehicle: Klucel (hydroxypropylcellulose) (HPC)): 111 % of control
T/C (endpoint: median survival time, dose: 4.0 mg/kg/injection, schedule: Q03HX016 (ip), vehicle: other): 187 % of control
T/C (endpoint: median survival time, dose: 4.0 mg/kg/injection, schedule: Q03HX016 (oral), vehicle: Klucel (hydroxypropylcellulose) (HPC)): 100 % of control
T/C (endpoint: median survival time, dose: 4.0 mg/kg/injection, schedule: Q03HX024 (ip), vehicle: other): 118 % of control
T/C (endpoint: median survival time, dose: 4.0 mg/kg/injection, schedule: Q03HX024 (oral), vehicle: Klucel (hydroxypropylcellulose) (HPC)): 88 % of control
T/C (endpoint: median survival time, dose: 8.0 mg/kg/injection, schedule: Q01DX001 (ip), vehicle: other): 162 % of control
T/C (endpoint: median survival time, dose: 8.0 mg/kg/injection, schedule: Q01DX001 (sc), vehicle: other): 112 % of control
T/C (endpoint: median survival time, dose: 8.0 mg/kg/injection, schedule: Q01DX009 (ip), vehicle: saline): 220 % of control
T/C (endpoint: median survival time, dose: 8.0 mg/kg/injection, schedule: Q01DX009 (oral), vehicle: Klucel (hydroxypropylcellulose) (HPC)): 116 % of control
T/C (endpoint: median survival time, dose: 8.0 mg/kg/injection, schedule: Q01DX009 (sc), vehicle: other): 118 % of control
T/C (endpoint: median survival time, dose: 8.0 mg/kg/injection, schedule: Q03HX008 (ip), vehicle: other): 87 % of control
T/C (endpoint: median survival time, dose: 8.0 mg/kg/injection, schedule: Q03HX008 (oral), vehicle: Klucel (hydroxypropylcellulose) (HPC)): 122 % of control
T/C (endpoint: median survival time, dose: 8.0 mg/kg/injection, schedule: Q03HX016 (oral), vehicle: Klucel (hydroxypropylcellulose) (HPC)): 100 % of control
T/C (endpoint: median survival time, dose: 8.0 mg/kg/injection, schedule: Q03HX024 (ip), vehicle: other): 112 % of control
T/C (endpoint: median survival time, dose: 8.0 mg/kg/injection, schedule: Q03HX024 (oral), vehicle: Klucel (hydroxypropylcellulose) (HPC)): 88 % of control
T/C (endpoint: median survival time, dose: 8.0 mg/kg/injection, schedule: Q04DX003 (ip), vehicle: other): 193 % of control
T/C (endpoint: median survival time, dose: 8.0 mg/kg/injection, schedule: Q08DX002 (ip), vehicle: other): 168 % of control
T/C (endpoint: median survival time, dose: 16.0 mg/kg/injection, schedule: Q01DX001 (ip), vehicle: other): 162 % of control
T/C (endpoint: median survival time, dose: 16.0 mg/kg/injection, schedule: Q01DX009 (ip), vehicle: other): 100 % of control
T/C (endpoint: median survival time, dose: 16.0 mg/kg/injection, schedule: Q01DX009 (oral), vehicle: Klucel (hydroxypropylcellulose) (HPC)): 122 % of control
T/C (endpoint: median survival time, dose: 16.0 mg/kg/injection, schedule: Q01DX009 (sc), vehicle: other): 93 % of control
T/C (endpoint: median survival time, dose: 16.0 mg/kg/injection, schedule: Q03HX008 (oral), vehicle: Klucel (hydroxypropylcellulose) (HPC)): 111 % of control
T/C (endpoint: median survival time, dose: 16.0 mg/kg/injection, schedule: Q03HX016 (oral), vehicle: Klucel (hydroxypropylcellulose) (HPC)): 111 % of control
T/C (endpoint: median survival time, dose: 16.0 mg/kg/injection, schedule: Q03HX024 (oral), vehicle: Klucel (hydroxypropylcellulose) (HPC)): 94 % of control

From PubChem BioAssay AID256 (DTP/NCI, 2004)
